Measurements reported in PMC9649518, “Knockout of ABC transporters by CRISPR/Cas9 contributes to reliable and accurate transporter substrate identification for drug discovery” (Frontiers in Pharmacology, 2022).

Columns and labels:
[1] = test system: BCRP single- and double-KO Caco-2 cell lines; assay: Bidirectional transport assay, BCRP single- and double-KO cell lines taken together; conditions: 5 μM substrate
Caco^Pgp−/− cells = assay: Bidirectional transport assay across P-gp KO Caco-2 monolayers; conditions: Caco^Pgp−/−, 5 μM substrate, n = 3
Caco^MRP2−/− cells = assay: Bidirectional transport assay across MRP2 KO Caco-2 monolayers; conditions: Caco^MRP2−/−, 5 μM substrate, n = 3
Procedure: (§4) For MRP2, the nonfluorescent compound CDCFDA was used as the probe substrate. […] After treatment, samples were transferred to black-walled 96-well assay plates. A standard curve of 2-fold serial dilution from 10 µM CDCF was generated. The CDCF concentration was measured based on the fluorescence in a microplate fluorescence reader (Tecan, Switzerland) set at 485 nm and 530 nm for the excitation and emission wavelengths, respectively.

Caco^BCRP−/− cells = assay: Bidirectional transport assay across BCRP KO Caco-2 monolayers; conditions: Caco^BCRP−/−, 5 μM substrate, n = 3
Procedure: as §4

Caco^Pgp−/−BCRP−/− cells = assay: Bidirectional transport assay across P-gp/BCRP double KO Caco-2 monolayers; conditions: Caco^Pgp−/−BCRP−/−, 5 μM substrate, n = 3
Procedure: as §4

Caco^Pgp−/−MRP2−/− cells = assay: Bidirectional transport assay across P-gp/MRP2 double KO Caco-2 monolayers; conditions: Caco^Pgp−/−MRP2−/−, 5 μM substrate, n = 3
Procedure: as §4

[2] = test system: Caco^MRP2−/−BCRP−/− cells; assay: Bidirectional transport assay across MRP2/BCRP double KO Caco-2 monolayers; conditions: Caco^MRP2−/−BCRP−/−, 5 μM substrate, n = 3
Procedure: as §4

Caco-2 WT cells = assay: Bidirectional transport assay across Caco-2 WT monolayers; conditions: WT Caco-2, 5 μM substrate, n = 3; for Efflux ratio: Papp(B-to-A)/Papp(A-to-B)
Procedure: as §4

[3] = test system: MRP2 single- and double-KO Caco-2 cell lines; assay: Bidirectional transport assay, MRP2 single- and double-KO cell lines taken together; conditions: 5 μM substrate
Procedure: For MRP2, the nonfluorescent compound CDCFDA was used as the probe substrate. This compound passively diffuses into cells and is hydrolyzed by intracellular esterases to the fluorescent product, CDCF, which is then rapidly excreted by MRP2 ([Sampson et al., 2015]). After treatment, samples were transferred to black-walled 96-well assay plates. A standard curve of 2-fold serial dilution from 10 µM CDCF was generated. The CDCF concentration was measured based on the fluorescence in a microplate fluorescence reader (Tecan, Switzerland) set at 485 nm and 530 nm for the excitation and emission wavelengths, respectively.

[4] = Bidirectional transport assay across P-gp KO Caco-2 monolayers; conditions: human, pH 7.4
[5] = Bidirectional transport assay across MRP2 KO Caco-2 monolayers; conditions: human
Procedure: as §4

[6] = target: T1, P-gp, BCRP, and MRP2 efflux transporters (Homo sapiens, UniProt Q92887); assay: Transporter substrate identification with the panel of WT and KO Caco-2 cells; assay type: in vitro ADME; conditions: 5 μM
T1 construct: endogenous in cells; host or cells: Caco-2 WT and CRISPR/Cas9 transporter-knockout Caco-2 clones
Procedure: (§1) The medium was replaced every second day.
(§2) All these studies were conducted by following similar procedures. […] Then, HBSS was aspirated from both sides.
(§3) The flow rate was 0.3 mL/min.

[7] = test system: P-gp, BCRP, and MRP2 efflux transporters; assay: as above; assay type: in vitro ADME, human; conditions: 5 μM; ER ≥ 2 suggests active transport
Procedure: as §1, §2, §3

[8] = Bidirectional transport assay, P-gp single- and double-KO cells taken together; assay type: in vitro ADME; conditions: human, pH 7.4, 5 μM substrate
Procedure: as §1, §2, §3

[9] = Bidirectional transport assay across BCRP KO Caco-2 monolayers; conditions: human
Procedure: as §4

[10] = Bidirectional transport assay across P-gp/BCRP double KO Caco-2 monolayers; conditions: human, pH 7.4
Procedure: as §4

[11] = Bidirectional transport assay across P-gp/MRP2 double KO Caco-2 monolayers; conditions: human, pH 7.4
Procedure: as §4

[12] = Bidirectional transport assay across MRP2/BCRP double KO Caco-2 monolayers; conditions: human
Procedure: as §4

[13] = Bidirectional transport assay across Caco-2 WT monolayers; conditions: human
Procedure: as §4

P-gp = test system: P-gp; parameters: method as in Mease et al., 2012; conditions: 10 µM inhibitor; Caco-2; ref Mease et al., 2012; cited from earlier work
BCRP transporter = test system: BCRP transporter; parameters: method as in Mease et al., 2012; conditions: 1 µM inhibitor; Caco-2; ref Mease et al., 2012; cited from earlier work

T1 sequence (Q92887 whole entry): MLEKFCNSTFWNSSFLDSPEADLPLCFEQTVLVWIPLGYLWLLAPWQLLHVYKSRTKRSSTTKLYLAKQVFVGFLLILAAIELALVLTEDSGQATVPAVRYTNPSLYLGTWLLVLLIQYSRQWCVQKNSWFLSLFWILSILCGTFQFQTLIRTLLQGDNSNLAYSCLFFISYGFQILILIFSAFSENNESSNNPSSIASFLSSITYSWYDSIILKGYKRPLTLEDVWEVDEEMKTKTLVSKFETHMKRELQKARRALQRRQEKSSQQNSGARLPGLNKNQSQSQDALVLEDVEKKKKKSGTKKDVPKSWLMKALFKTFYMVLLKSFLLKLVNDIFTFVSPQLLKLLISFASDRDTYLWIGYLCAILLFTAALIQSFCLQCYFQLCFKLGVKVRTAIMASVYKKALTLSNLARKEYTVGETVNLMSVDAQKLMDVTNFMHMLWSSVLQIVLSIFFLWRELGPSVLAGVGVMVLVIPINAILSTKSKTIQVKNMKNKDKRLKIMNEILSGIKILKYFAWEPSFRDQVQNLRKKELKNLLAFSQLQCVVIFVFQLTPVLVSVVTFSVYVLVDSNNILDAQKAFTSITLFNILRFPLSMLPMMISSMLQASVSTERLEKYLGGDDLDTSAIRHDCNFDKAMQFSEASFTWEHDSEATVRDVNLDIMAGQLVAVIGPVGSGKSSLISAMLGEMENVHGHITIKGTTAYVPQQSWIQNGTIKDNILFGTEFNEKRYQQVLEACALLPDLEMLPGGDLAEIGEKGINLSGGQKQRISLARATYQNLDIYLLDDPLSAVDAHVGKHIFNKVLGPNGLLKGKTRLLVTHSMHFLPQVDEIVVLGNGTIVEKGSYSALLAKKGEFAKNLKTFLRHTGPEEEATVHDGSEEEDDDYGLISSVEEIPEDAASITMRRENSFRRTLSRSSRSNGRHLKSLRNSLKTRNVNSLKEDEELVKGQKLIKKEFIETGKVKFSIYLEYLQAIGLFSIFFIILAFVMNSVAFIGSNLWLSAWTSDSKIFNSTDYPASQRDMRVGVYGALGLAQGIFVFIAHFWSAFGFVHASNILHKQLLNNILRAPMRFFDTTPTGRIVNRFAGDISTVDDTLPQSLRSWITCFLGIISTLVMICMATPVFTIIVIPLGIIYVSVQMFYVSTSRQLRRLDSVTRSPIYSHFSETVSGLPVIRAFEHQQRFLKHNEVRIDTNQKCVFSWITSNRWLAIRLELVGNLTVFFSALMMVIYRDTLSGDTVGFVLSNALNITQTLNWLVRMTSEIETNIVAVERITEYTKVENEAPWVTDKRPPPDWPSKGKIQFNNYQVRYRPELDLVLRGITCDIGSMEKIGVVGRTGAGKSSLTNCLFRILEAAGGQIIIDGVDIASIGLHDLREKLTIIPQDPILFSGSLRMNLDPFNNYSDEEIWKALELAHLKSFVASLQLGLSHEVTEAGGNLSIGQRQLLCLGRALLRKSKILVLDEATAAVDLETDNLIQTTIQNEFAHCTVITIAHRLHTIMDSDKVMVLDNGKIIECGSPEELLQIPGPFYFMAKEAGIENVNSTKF

For C[C@]12CC[C@@H]3c4ccc(OS(=O)(=O)O)cc4CC[C@H]3[C@@H]1CCC2=O [Estrone 3-Sulfate, estrone 3-sulfate], the Efflux ratio [1] was 0.8–1.3, the “Papp A-to-B” value (Caco^Pgp−/− cells; 1 h, 37°C, HBSS pH 7.4) was 1.53 ± 0.24 ×10^−6cm/s and the “Papp B-to-A” value (Caco^Pgp−/− cells; 1 h, 37°C, HBSS pH 7.4) was 22.48 ± 1.01 ×10^−6cm/s. For the same molecule, the Efflux ratio (Caco^Pgp−/− cells) was 14.90 ± 1.63, the “Papp A-to-B” value (Caco^MRP2−/− cells; 1 h, 37°C, HBSS pH 7.4) was 2.91 ± 0.32 ×10^−6cm/s and the “Papp B-to-A” value (Caco^MRP2−/− cells; 1 h, 37°C, HBSS pH 7.4) was 15.32 ± 3.10 ×10^−6cm/s. The Efflux ratio (Caco^MRP2−/− cells) was 5.24 ± 0.59, the “Papp A-to-B” value (Caco^BCRP−/− cells; 1 h, 37°C, HBSS pH 7.4) was 1.15 ± 0.11 ×10^−6cm/s and the “Papp B-to-A” value (Caco^BCRP−/− cells; 1 h, 37°C, HBSS pH 7.4) was 1.58 ± 0.08 ×10^−6cm/s. The Efflux ratio (Caco^BCRP−/− cells) was 1.36 ± 0.18, the “Papp A-to-B” value (Caco^Pgp−/−BCRP−/− cells; 1 h, 37°C, HBSS pH 7.4) was 1.88 ± 0.02 ×10^−6cm/s and the “Papp B-to-A” value (Caco^Pgp−/−BCRP−/− cells; 1 h, 37°C, HBSS pH 7.4) was 1.54 ± 0.30 ×10^−6cm/s. For the same molecule, the Efflux ratio (Caco^Pgp−/−BCRP−/− cells) was 0.820 ± 0.15, the “Papp A-to-B” value (Caco^Pgp−/−MRP2−/− cells; 1 h, 37°C, HBSS pH 7.4) was 3.23 ± 0.08 ×10^−6cm/s and the “Papp B-to-A” value (Caco^Pgp−/−MRP2−/− cells; 1 h, 37°C, HBSS pH 7.4) was 25.34 ± 2.06 ×10^−6cm/s. The Efflux ratio (Caco^Pgp−/−MRP2−/− cells) was 7.830 ± 0.46, the “Papp A-to-B” value ([2]; 1 h, 37°C, HBSS pH 7.4) was 0.97 ± 0.04 ×10^−6cm/s and the “Papp B-to-A” value ([2]; 1 h, 37°C, HBSS pH 7.4) was 0.92 ± 0.49 ×10^−6cm/s. The Efflux ratio [2] was 0.96 ± 0.51, the “Papp A-to-B” value (Caco-2 WT cells; 1 h, 37°C, HBSS pH 7.4) was 0.67 ± 0.12 ×10^−6cm/s and the “Papp B-to-A” value (Caco-2 WT cells; 1 h, 37°C, HBSS pH 7.4) was 10.87 ± 0.20 ×10^−6cm/s. For the same molecule, the Efflux ratio (Caco-2 WT cells) was 16.65 ± 2.90, the Efflux ratio (Caco-2 WT cells; listed as E3S) was 16.6 and the “Efflux ratio compared with WT” value [3] was “reduced significantly”.

Work on Cc1c(O)cccc1C(=O)N[C@@H](CSc1ccccc1)[C@H](O)CN1C[C@H]2CCCC[C@H]2C[C@H]1C(=O)NC(C)(C)C [Nelfinavir] yielded a Papp A→B at 1 h, 5 μM [4] of 4.17 ± 0.17 ×10⁻⁶ cm/s, a Papp B→A at 1 h, 5 μM [4] of 2.18 ± 0.43 ×10⁻⁶ cm/s and an efflux ratio at 1 h, 5 μM [4] of 0.41 ± 0.04. It also gave a Papp B→A at 1 h, 5 μM ([5]; pH 7.4) of 14.7 ± 0.99 ×10⁻⁶ cm/s, an efflux ratio at 1 h, 5 μM ([5]; pH 7.4) of 3.25 ± 0.31 and a Papp A→B at 1 h, 5 μM ([5]; pH 7.4, Papp A-to-B, Caco^MRP2−/−, 5 μM substrate, 1 h, 37°C, HBSS pH 7.4, n = 3) of 4.53 ± 0.26 ×10⁻⁶ cm/s. For the same molecule, the “Substrate of MRP2 (conclusion from ERs in KO cells)” value [6] was “cannot mediate”, the “Efflux transporter substrate identification (conclusion from ERs in WT and KO cells)” value [7] was “P-gp was the main transporter” and the efflux ratio at 1 h, 5 μM [8] was ~1. The Papp A→B at 1 h, 5 μM ([9]; pH 7.4) was 2.21 ± 0.41 ×10⁻⁶ cm/s, the Papp B→A at 1 h, 5 μM ([9]; pH 7.4) was 4.88 ± 0.17 ×10⁻⁶ cm/s and the efflux ratio at 1 h, 5 μM ([9]; pH 7.4, Efflux ratio, Caco^BCRP−/−, 5 μM substrate, n = 3) was ~2. For the same molecule, the Efflux ratio (Caco^BCRP−/− cells) was 2.25 ±0.34, the Papp A→B at 1 h, 5 μM [10] was 7.54 ± 0.24 ×10⁻⁶ cm/s and the Papp B→A at 1 h, 5 μM [10] was 3.22 ± 0.62 ×10⁻⁶ cm/s. It also gave an efflux ratio at 1 h, 5 μM [10] of 0.43 ± 0.09, a Papp A→B at 1 h, 5 μM [11] of 4.23 ± 0.22 ×10⁻⁶ cm/s and a Papp B→A at 1 h, 5 μM [11] of 4.51 ± 0.63 ×10⁻⁶ cm/s. The efflux ratio at 1 h, 5 μM [11] was 1.07 ± 0.42, the Papp B→A at 1 h, 5 μM ([12]; pH 7.4) was 17.9 ± 1.89 ×10⁻⁶ cm/s and the efflux ratio at 1 h, 5 μM ([12]; pH 7.4) was 6.41 ± 0.35. For the same molecule, the Papp A→B at 1 h, 5 μM ([12]; pH 7.4, Papp A-to-B, Caco^MRP2−/−BCRP−/−, 5 μM substrate, 1 h, 37°C, HBSS pH 7.4, n = 3) was 2.79 ± 0.28 ×10⁻⁶ cm/s, the Papp A→B at 1 h, 5 μM ([13]; Caco-2, pH 7.4) was 2.78 ± 0.39 ×10⁻⁶ cm/s and the Papp B→A at 1 h, 5 μM ([13]; Caco-2, pH 7.4) was 12.2 ± 1.86 ×10⁻⁶ cm/s. The efflux ratio at 1 h, 5 μM ([13]; Caco-2, pH 7.4, Efflux ratio, WT Caco-2, 5 μM substrate, Papp(B-to-A)/Papp(A-to-B), n = 3) was 4.47 ± 1.19.

For COc1ccc2c3c([nH]c2c1)[C@H](C=C(C)C)N1C(=O)[C@@H]2CCCN2C(=O)[C@@H]1C3 [fumitremorgin C], the “Inhibition of P-gp” value (P-gp) is listed as “only partially inhibited” and the “Inhibition of the BCRP transporter” value (BCRP transporter) is listed as “selectively inhibited”.
